Results on 29 compounds are retold here after ChEMBL document CHEMBL1152719, “Non-urea functionality as the primary pharmacophore in soluble epoxide hydrolase inhibitors” (Bioorg Med Chem Lett, 2009).

Molecules are shown by their SMILES.

This test deals with T1, Bifunctional epoxide hydrolase 2 (Homo sapiens, UniProt P34913).
T1 sequence (P34913 whole entry): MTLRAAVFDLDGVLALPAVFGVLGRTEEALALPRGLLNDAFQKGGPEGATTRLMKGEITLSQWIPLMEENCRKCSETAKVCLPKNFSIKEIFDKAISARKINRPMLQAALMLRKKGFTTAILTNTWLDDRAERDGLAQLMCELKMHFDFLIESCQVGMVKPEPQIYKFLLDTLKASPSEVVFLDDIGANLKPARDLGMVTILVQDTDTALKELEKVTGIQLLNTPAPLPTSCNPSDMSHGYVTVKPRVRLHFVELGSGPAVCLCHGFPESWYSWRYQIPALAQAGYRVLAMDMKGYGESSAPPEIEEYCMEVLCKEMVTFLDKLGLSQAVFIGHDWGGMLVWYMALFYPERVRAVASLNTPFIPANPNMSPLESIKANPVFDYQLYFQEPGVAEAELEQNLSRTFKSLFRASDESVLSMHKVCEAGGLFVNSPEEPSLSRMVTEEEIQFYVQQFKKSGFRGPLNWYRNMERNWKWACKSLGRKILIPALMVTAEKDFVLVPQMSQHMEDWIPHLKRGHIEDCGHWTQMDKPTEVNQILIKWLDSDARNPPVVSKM
Kind of test: Inhibition of soluble epoxide hydrolase by fluorescence assay.

On to `O=C(Nc1cccc(OCCCN2CCOCC2)c1)C(O)CC12CC3CC(CC(C3)C1)C2` (centres undefined), for which the 50% inhibitory concentration (IC50) (in general, the concentration that inhibits the measured activity by half) turned out to be 23 nM.

As to `O=C(Nc1cccc(OCCCN2CCOCC2)c1)C(O)C12CC3CC(CC(C3)C1)C2` (centres undefined), the 50% inhibitory concentration (IC50) was above 2000 nM.

For the compound `O=S(=O)(Nc1cccc(OCCCN2CCOCC2)c1)NC12CC3CC(CC(C3)C1)C2`, it took 3600 nM to reach half-maximal inhibition (IC50).

As for `O=C(CC12CC3CC(CC(C3)C1)C2)C(=O)NCCc1ccc(OCc2ccccc2)cc1`, half-maximal inhibition (IC50) required 1540 nM.

The compound `O=C(NCCc1ccc(OCc2ccccc2)cc1)C(O)CC12CC3CC(CC(C3)C1)C2` (centres undefined) yielded an IC50 of 185 nM.

`O=C(CC12CC3CC(CC(C3)C1)C2)Nc1cccc(OCCCN2CCOCC2)c1`: it took 2.5 nM to reach half-maximal inhibition (IC50).

On to `O=C(Nc1cccc(OCCCN2CCOCC2)c1)c1ccc(C(F)(F)F)cc1`, for which the IC50 worked out at 93 nM.

Take `O=C(Nc1ccc(OC(F)(F)F)cc1)Nc1cccc(OCCCN2CCOCC2)c1`: it took 8.2 nM to reach half-maximal inhibition (IC50).

Compound `O=S(=O)(Nc1cccc(OCCCN2CCOCC2)c1)c1ccc(C(F)(F)F)cc1` registered an IC50 of 15000 nM.

`O=C(Nc1cccc(OCCCN2CCOCC2)c1)NC12CC3CC(CC(C3)C1)C2` registered a half-inhibitory concentration (IC50) of 0.8 nM.

Compound `O=C(Nc1cccc(OCCCN2CCOCC2)c1)NC1CCCCC1` had a 50% inhibitory concentration (IC50) of 3.9 nM.

`O=C(CC1CCCCC1)Nc1cccc(OCCCN2CCOCC2)c1` came in with an IC50 of 28 nM.

As to `O=C(CC12CC3CC(CC(C3)C1)C2)C(=O)Nc1ccc(OCc2ccccc2)cc1`, the IC50 was determined as 1110 nM.

For the compound `O=C(Cc1ccc(C(F)(F)F)cc1)Nc1cccc(OCCCN2CCOCC2)c1`, inhibition was half-maximal at 55 nM (IC50).

For `O=C(CC12CC3CC(CC(C3)C1)C2)C(=O)Nc1cccc(OCCCN2CCOCC2)c1`, half-maximal inhibition (IC50) was put at 49 nM.

Compound `O=C(CCC12CC3CC(CC(C3)C1)C2)C(=O)NCCc1ccc(OCc2ccccc2)cc1` yielded an IC50 of 685 nM.

The compound `O=C(CNC12CC3CC(CC(C3)C1)C2)Nc1cccc(OCCCN2CCOCC2)c1` displayed an IC50 of 110 nM.

Compound `O=C(Nc1cccc(OCCCN2CCOCC2)c1)C(O)CCC12CC3CC(CC(C3)C1)C2` (centres undefined) gave an IC50 of 530 nM.

As for `O=C(CCC12CC3CC(CC(C3)C1)C2)C(=O)Nc1cccc(OCCCN2CCOCC2)c1`, inhibition was half-maximal at 48 nM (IC50).

In turn, `O=C(Nc1ccc(OCc2ccccc2)cc1)C(O)C12CC3CC(CC(C3)C1)C2` (centres undefined) displayed an IC50 of 310 nM.

Turning to `O=C(Nc1ccc(C(F)(F)F)cc1)Nc1cccc(OCCCN2CCOCC2)c1`, 1.2 nM corresponded to half-maximal inhibition (IC50).

The compound `O=C(NCCc1ccc(OCc2ccccc2)cc1)NCCC12CC3CC(CC(C3)C1)C2` came in with an IC50 of 15 nM.

`O=C(NCCc1ccc(OCc2ccccc2)cc1)C(O)CCC12CC3CC(CC(C3)C1)C2` (centres undefined): the IC50 was 11 nM.

`O=C(Nc1ccc(OCc2ccccc2)cc1)C(O)CC12CC3CC(CC(C3)C1)C2` (centres undefined) had a half-maximal inhibitory concentration (IC50) of 270 nM.

In turn, `O=C(Nc1cccc(OCCCN2CCOCC2)c1)C1CCCCC1` came in with an IC50 of 390 nM.

For `O=C(Nc1ccc(OCc2ccccc2)cc1)C(=O)C12CC3CC(CC(C3)C1)C2`, 210 nM corresponded to half-maximal inhibition (IC50).

Take `S=C(Nc1cccc(OCCCN2CCOCC2)c1)NC12CC3CC(CC(C3)C1)C2`: the IC50 amounted to 22 nM.

Compound `O=C(Nc1cccc(OCCCN2CCOCC2)c1)C(=O)C12CC3CC(CC(C3)C1)C2` gave an IC50 above 2000 nM.

The compound `O=C(Nc1cccc(OCCCN2CCOCC2)c1)C12CC3CC(CC(C3)C1)C2` displayed an IC50 of 88 nM.
